Assay results published in patent publication US20120315345A1, “FUNCTIONAL FOOD AND PHARMACEUTICAL COMPOSITIONS FOR ANTI-OBESITY COMPRISING CAPSANTHIN AND FATTY-ACYL ESTER OF CAPSANTHIN HAVING ANTI-ADIPOGENIC ACTIVITY” (ESBIOTECH CO., LTD., priority 2011, published 2012).
Read-outs that look alike come from different tables or passages of the source.

Experiments:
3T3-L1 cell = experiment: Inhibitory activity on triglycerides accumulation in adipocyte (Oil Red O staining); assay type: cell-based, mouse; details: read-out: IC50-value on triglycerides accumulation in adipocyte
Experimental: (§1) 3T3-L1 mouse embryonic fibroblast was cultured according to Singh's method (Singh R, Testosterone inhibits adipogenic differentiation in 3T3-L1 cells: Nuclear translocation of androgen receptor complex with β-catenin and T-cell factor 4 may bypass canonical WNT signaling to down-regulate adipogenic transcription factors, Endocrinology, 2006, 147, 141 to 154).
(§2) 3T3-L1 cells supplied by Korean cell line bank were cultured on a Dulbecco's modified Eagle's medium (DMEM) medium that includes 10% bovine calf serum and 1% penicillin-streptomycin mixture. When they reached confluence, culturing was continued for further 2 to 3 days. Thereafter, the medium was replaced by a fresh DMEM medium containing 10% fetal bovine serum, 1.7 μM insulin, 0.5 mM 3-isobutyl-1-methylxanthine (IBMX) and 1 μM dexamethasone and culturing was continued for 8 days. For the evaluation of inhibitory activities of capsanthin on adipocyte differentiation and on triglycerides accumulation in adipocyte, a positive control experiments were conducted on capsaicin (sigma) and/or genistein (sigma).
Negal's Oil red O staining procedure (Negrel R, Culture of adipose precursor cell and cells of clonal lines from animal white adipose tissue, in adipose tissue protocols. G. Ailhaud (ed). Humana press, inc., Totowa, N.J., 2001, 225-237) was adopted to assay the quantities of triglyceides accumulated in adipocytes. The pre-adipocytes (3T3-L1 cell) were cultured in 12-well culture plate for additional two days to induce clonal expansion after the confluent phase. The culture media was replaced with differentiation media which is containing various concentration of capsanthin solution in DMSO (final concentration of DMSO in the differentiation media were kept under 0.1%) and cultured for additional 8 days to induce lipid accumulation. The culture media was removed by aspiration and washed with PBS. The cells were fixed on the surface of culture well by incubation for one hour with 500 ul of 10% formaldehyde solution. After removal of formaldehyde the cells were washed with PBS and then stained by incubation with Oil Red O for 2 hours. After two removal of Oil Red O solution by aspiration the cells were washed with PBS and then Oil Red O in adipocyte was extracted by incubation 10 minutes with 1 ml isopropyl-alcohol. Oil Red O contents in isopropyl-alcohol were assayed by 510 nm absorption on ELISA reader.

3T3-L1 cells = experiment: Inhibition test on adipocyte differentiation (counting of Oil Red O stained cells); assay type: cell-based, mouse; details: 3 days in differentiation medium, microscopical counting of Oil Red O stained cells
Experimental: as §1, §2
Mouse embryonic 3T3-L1 cells were plated in 12-well culture plate with DMEM containing 10% BCS (Bovine calf serum) and cultured for the proliferation of cells under 5% CO2 atmosphere at 37° C. until confluent phase is appeared. Continued culture for additional 2 days will ensure the clonal expansion. Culture media is replaced with differentiation medium consisting of DMEM, 10% FBS, 1.7 uM insulin, 0.5 mM IBMX, 1 uM dexamethasone and varying amount of capsanthin in DMSO (final concentration of DMSO in the differentiation media were kept under 0.1%) and cultured additional 3 days for the induction of cell differentiation Culture media was removed and washed with PBS and the cells were fixed on the well surface by incubation with 10% formaldehyde for one hour and then washed with PBS. The differentiate cells were stained with Oil Red O solution for 2 hours. The number of adipocyte stained red was counted with microscopical observation.

[1] = design: species or system Sprague-Dawley albino rats; details: rat, in vivo
Experimental: Male Sprague-Dawley albino rats were used for the analysis of gastro-intestinal absorption of capsanthins. Animals were accommodated in a constant humidity of 50 (±5) % and constant temperature of 25 (±1)° C. under shading control of light and dark with 12 hours intervals. Feeds and water supplies were provided at libidium.
Free-form capsanthin (15 mg/kg body wt) in soy-bean oil was orally administered to group-1 animals and then 4 ml time-course blood samples were collected from the animals to EDTA tubes and centrifuged (3,000 rpm, 10 min) to obtain 1 ml plasma samples. To the plasma samples 1 ml of 1%-BHT in ethanol and 2 ml hexane were mixed, shaked vigorously and centrifuged for 5 minutes at 2,000 rpm to obtain hexane layer for the HPLC-analysis under the HPLC-condition appears in Example 10. (M. A. Grashom, Quantification of carotenoids in chicken plasma after feeding free of esterified lutein and capsanthin using high-performance liquid chromatography and liquid chromatography-mass spectrometry analysis, Poultry science, 2003, 82, 395-401, Hideo E, Carotenoids in human blood plasma after ingesting paprika juice)
Fatty-acyl ester of capsanthin was orally administered to group-2 animals equimolar dosage bases with that of free-form capsanthin. The time course collection of blood and further treatments were conducted as same way with that of group-1 experiments [Ref. to 0086]

[2] = Stability during fermentation of kochujang; assay type: physicochemical
Text: Capsanthin is contained in the natural products such as red peppers as the chemically stable esterified-form. Therefore, even when red peppers or the likes are included in fermented foods as the Korean traditional foods like “kimchi” or “kochujang” (also referred to as “gochujang”), original anti-adipogenic activities thereof are retained. On the other hand, it was found in our laboratory that about 35% or more of anti-adipogenic capsaicin component was destroyed during 6 month-long fermentation.
Red pepper is a traditional spicy vegetable food and more than 90% of total consumption in Korea is used to prepare traditional fermented food such as “kimchi” and “kochujang” in Korea. […] Based on this observation, present inventors are claiming that the anti-adipogenic activity of “kochujang” is due more to capsanthin components rather than to the capsaicin or capsaicin metabolite.

[3] = 3T3-L1 cells, 8 days in differentiation media, Oil Red O

Compound: O=c1c(-c2ccc(O)cc2)coc2cc(O)cc(O)c12 [genistein]
- IC50 (3T3-L1 cell; Mus musculus, 192 h, 3T3-L1 cells, 8 days in differentiation media, Oil Red O): 58.7 µM
- IC50 (3T3-L1 cells; Mus musculus, 72 h): 28.1 µM

Compound: fucoxanthin
- IC50 (3T3-L1 cell; [3]): 54.8 µM
- IC50 (3T3-L1 cells): 79.1 µM

Compound: CC1=C(/C=C/C(C)=C/C=C/C(C)=C/C=C/C=C(C)/C=C/C=C(C)/C=C/C(=O)[C@]2(C)C[C@@H](O)CC2(C)C)C(C)(C)C[C@H](O)C1 [free-form capsanthin, capsanthin]
- Molecular species found in the blood by HPLC after oral administration [1]: appeared in the blood
- IC50 (3T3-L1 cell; [3]): 1.31 µM
- IC50 (3T3-L1 cells): 4.49 µM

Compound: fatty-acyl ester of capsanthin [esterified-form capsanthin]
- Molecular species found in the blood by HPLC after oral administration [1]: not detected
- Chemical alteration during fermentation of kochujang [2]: remained without any chemical alteration
- IC50 (3T3-L1 cell; [3]): 55.2 µM
- IC50 (3T3-L1 cells): 75.4 µM

Compound: COc1cc(CNC(=O)CCCC/C=C/C(C)C)ccc1O [capsaicin]
- Component destroyed during fermentation ([2]; 6 month-long fermentation): ≥ 35%
- Chemical alteration during fermentation of kochujang [2]: significant decomposition
- IC50 (3T3-L1 cell; Mus musculus, 3T3-L1, 192 h): 32.6 µM
- IC50 (3T3-L1 cells; Mus musculus, 72 h): 3.39 µM
